Values joined by “and” are separate entries in the source; they are usually repeats but may differ in a detail not shown here. Equal values may be shown once.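 A five-concentration, 48-hour dose response in 96-well plates underlies each endpoint, interpolated linearly between surrounding concentrations. GI50 is the concentration that inhibits growth by half. At the TGI there is no net growth.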
What was measured:
Test in all cases: inhibition of tumour cell growth, NCI panel, 48 h
[1] = test system: OVCAR-3 ovarian
[2] = test system: K-562 leukemia
[3] = test system: SK-MEL-28 melanoma
[4] = test system: MALME-3M melanoma
[5] = test system: ACHN renal
[6] = test system: M14 melanoma
[7] = test system: MDA-MB-231 breast
[8] = test system: RXF 393 renal
[9] = test system: HCT-15 colon
[10] = test system: IGROV1 ovarian

Compound | GI50 [1] | TGI [1] [µM] | GI50 [2] [µM] | TGI [2] | GI50 [3] | TGI [3] [µM] | GI50 [4] | TGI [4] | GI50 [5] | TGI [5] [µM] | GI50 [6] | TGI [6] | GI50 [7] | TGI [7] | GI50 [8] | TGI [8] [µM] | TGI [9] [µM] | GI50 [10] | TGI [10] | GI50 [9]
COc1ccc2c(c1)/C(=C\c1c(-c3ccccc3)nc3sccn13)C(=O)N2 | 0.122 µM | 0.444 | 3.98 | > 41.9 µM | 2.61 µM | 21.9 | 39.7 µM | 97.1 µM | 1.23 µM | 14.7 | 7.11 µM | 18.4 µM | 6.92 µM | 23.5 µM | 2.69 µM | 21.4 | > 35.6 | 13.9 µM | 52.3 µM | –
C[C@]1(c2nc3c(C(N)=O)cccc3[nH]2)CCCN1 | 53.6 µM and > 100 µM | > 100 | > 100 | > 100 µM | 75.1 µM and > 100 µM | > 100 | 43.4 µM and > 85.8 µM | 97.9 µM and > 100 µM | 41.8 µM and > 100 µM | > 100 | > 100 µM | > 100 µM | 98.3 µM and > 100 µM | > 100 µM | > 90.3 µM | > 100 | > 100 | 32.7 µM and 60.5 µM | > 100 µM | 54.4 µM and > 100 µM
Cc1ccc(S(=O)(=O)NC(Cc2ccccc2)C(=O)CCl)cc1 (stereo not given) | – | 29.2 | – | > 100 µM | – | 32.9 | – | 27.8 µM | – | 30.1 | – | 26.2 µM | – | 27.3 µM | – | 6.33 | 31.6 | – | 28.8 µM | –
O=C(Nc1ccc(Cl)cc1)c1cc(NCc2cc(O)ccc2O)ccc1O | 2.9 µM | 9.9 | 2.65 | 8.53 µM | 10.1 µM | 22.4 | 4.34 µM | 16.8 µM | 3.37 µM | 15.1 | 10.5 µM | 27.1 µM | 3.49 µM | 13.6 µM | 2.24 µM | 5.31 | 6.01 | 11.2 µM | 38.8 µM | 1.81 µM
COc1nc2c(c(=O)n1C)CN(c1ccccc1)C(=O)CN2C | 38.4 µM | > 100 | 59.7 | > 100 µM | 70 µM | > 100 | 46.7 µM | > 100 µM | 49.9 µM | > 100 | 62.6 µM | > 100 µM | 41.7 µM | > 100 µM | 54.3 µM | > 100 | > 100 | 4.33 µM | > 100 µM | 56.7 µM
O=C(O)c1nn(-c2ccc(Cl)cc2)c2c1C(=O)c1ccccc1C2=O | – | > 100 | – | > 100 µM | – | > 100 | – | 28.1 µM | – | > 100 | – | 63.9 µM | – | > 100 µM | – | > 100 | > 100 | – | > 100 µM | –
NC(CCl)=NCC12CC3CC(CC(C3)C1)C2 | 0.687 µM | 7.23 | 0.5 | 5.21 µM | 1.58 µM | 15.5 | 6.32 µM | 27.3 µM | 0.567 µM | 11.6 | 1.32 µM | 4.39 µM | 1.75 µM | 11.3 µM | 0.44 µM | 5.4 | 13.7 | 0.525 µM | 31.7 µM | 0.807 µM
CC[C@H](C)[C@H](NC(=O)c1ncccn1)C(=O)N(C)[C@H](C[C@@H](OC(C)=O)c1nc(C(=O)N[C@@H](Cc2ccccc2)C[C@H](C)C(=O)OC)cs1)C(C)C | 0.796 µM | > 25 | 0.935 | > 25 µM | 3.51 µM | > 25 | 1.29 µM | > 25 µM | 4.07 µM | > 25 | 1.13 µM | > 25 µM | 1.4 µM | 10.9 µM | 0.809 µM | 20.6 | > 25 | 1.38 µM | > 25 µM | 1.39 µM
O=C(N/N=C/c1ccc([N+](=O)[O-])cc1)c1ccccc1Nc1ccnc(C(F)(F)F)c1 | 4.54 µM | > 100 | 11 | > 100 µM | 14.8 µM | 64.2 | 10.7 µM | 33.6 µM | 7.89 µM | 73 | 19.2 µM | 58.7 µM | 21.7 µM | 77.1 µM | 15.4 µM | 42.8 | > 100 | 6.25 µM | 19.2 µM | 3.8 µM
Cn1cc(-c2ncnc3ccc(-c4cnc(Cl)c(NS(C)(=O)=O)c4)cc23)c2ccccc21 | 0.617 µM | 13.8 | 2.7 | > 100 µM | 0.306 µM | 6.89 | 0.227 µM | 2.48 µM | 0.781 µM | > 100 | 0.976 µM | > 100 µM | 1.84 µM | 26.4 µM | 0.435 µM | 4.05 | > 71.1 | 0.0964 µM | 0.852 µM | 0.447 µM
COc1ccc(-c2oc3ncnc(N)c3c2-c2ccc(NC(=O)Nc3cc(C(F)(F)F)ccc3F)cc2)cc1 | 1.3 µM | 4.32 | 1.19 | 16.6 µM | 1.94 µM | 5.26 | 1.81 µM | 6.22 µM | 0.95 µM | 7.89 | 0.806 µM | 3.23 µM | 1.1 µM | 6.17 µM | 0.473 µM | 1.15 | 6.65 | 0.995 µM | 5.82 µM | 1.04 µM
O=c1cc(-c2ccccc2)oc2c(O)c(O)ccc12 | 2.19 µM | 6.18 | 6.08 | > 100 µM | 11.4 µM | > 100 | 17.4 µM | 60.2 µM | 5.69 µM | > 100 | 9.55 µM | 41.4 µM | 23.2 µM | > 100 µM | 9.95 µM | 52.7 | > 100 | 6.99 µM | 47.1 µM | 5.45 µM
N#Cc1c(N)c(C(=O)c2ccc3c(c2)OCCO3)n2c1CCCC2 | 2.88 µM | > 28.3 | 0.638 | > 100 µM | 4.5 µM | > 100 | 2.6 µM | > 100 µM | 7.42 µM | > 100 | 2.08 µM | > 100 µM | 6.47 µM | > 100 µM | 2.29 µM | 17.9 | > 100 | 6.92 µM | > 100 µM | 1.04 µM
Cc1cc(C)c([I+]c2c(C)cc(C)cc2C)c(C)c1 | 0.379 µM | 1.62 | 0.319 | 1.43 µM | 0.774 µM | 2.08 | 0.37 µM | 1.46 µM | 1.17 µM | 2.47 | 0.44 µM | 1.69 µM | 0.371 µM | 1.38 µM | 0.398 µM | 1.55 | 6.76 | – | – | 2.15 µM
O=C1/C(=C/c2ccc(Cl)cc2)N=C(c2ccccc2)N1c1cc(C(F)(F)F)ccc1Cl | 17.4 µM | 69 | 20.1 | 79.9 µM | 39.1 µM | > 100 | 27.7 µM | 86.5 µM | 22.1 µM | > 100 | 22 µM | 90.1 µM | 16 µM | 55.8 µM | 27.5 µM | > 100 | 86.6 | 18.5 µM | 85.7 µM | 18.9 µM
CCCCCCCCCCCCCCCCCC1=NC(C)(C)CN1C(C)(C)CO | 1.5 µM | 2.96 | 1.11 | 4.05 µM | 1.81 µM | 3.28 | 1.94 µM | 4.22 µM | 1.53 µM | 3.05 | 1.46 µM | 2.88 µM | 1.29 µM | 3.16 µM | 1.11 µM | 2.36 | 3.16 | 1.08 µM | 2.6 µM | 1.38 µM
N#Cc1ccc2[nH]cc(Cc3c[nH]c4ccc(C#N)cc34)c2c1 | 16.7 µM | 49 | 14.7 | > 50 µM | 17.4 µM | > 50 | 6.98 µM | 21.1 µM | 12.2 µM | 35.5 | 10.9 µM | 24.3 µM | 10.3 µM | 25.1 µM | 10.7 µM | 34.9 | 42.2 | 12.3 µM | 35.7 µM | 13.5 µM
COc1ccc2c(c1)C(=O)/C(=C/c1ccc(O)cc1)O2 | 2.28 µM | 5.29 | 2.58 | > 24.8 µM | 14.3 µM | 29.6 | 5.47 µM | 13.2 µM | 4 µM | 10.9 | 15.3 µM | 34 µM | 14.2 µM | 28.8 µM | 11 µM | 26 | 15.8 | 6.87 µM | 20.8 µM | 4.2 µM
Cc1ccc(NC(=O)CCc2nnc3s/c(=C\C=C\c4ccccc4)c(=O)n23)cc1 | – | > 87.2 | – | > 100 µM | – | > 100 | – | > 100 µM | – | > 100 | – | > 100 µM | – | > 100 µM | – | > 100 | > 100 | – | > 100 µM | –
CC1(C)N=C(N)N=C(N)N1c1cccc(CCCCc2ccc(Cl)c(S(=O)(=O)F)c2)c1 | 5.58 µM | 18.5 | 0.521 | 15.2 µM | 7.67 µM | 21.2 | 9.71 µM | 28.3 µM | 20.9 µM | > 100 | 3.21 µM | 17.4 µM | 11 µM | 25.8 µM | 0.459 µM | 16.1 | > 100 | 0.66 µM | 18.8 µM | 6.47 µM
Oc1cccc2cccnc12 | – | – | – | 21.7 µM and > 100 µM and > 23.3 µM | 16.9 µM and > 100 µM and > 55.5 µM | > 100 | – | > 100 µM | 5.98 µM and 23.1 µM and 6 µM | > 100 | 3.01 µM and 24.2 µM and 2.99 µM | 35.4 µM and > 100 µM | – | > 28.7 µM and 84 µM and 33.1 µM | 13.4 µM and 69.6 µM and 14.6 µM | > 100 | > 100 | – | 28.9 µM and 24.4 µM and > 100 µM | 2.04 µM and 5.51 µM and 2.52 µM
O=c1cccccc1O | – | > 100 | – | > 100 µM | – | > 100 | – | > 100 µM | – | > 100 | – | > 100 µM | – | > 100 µM | – | > 100 | > 100 | – | > 100 µM | –
C/C(=N\N)C(CN1CCOCC1)C(c1ccccc1)c1c(O)c2ccccc2oc1=O (stereo not given) | – | > 100 | – | > 100 µM | – | > 100 | – | > 100 µM | – | > 100 | – | > 100 µM | – | > 100 µM | – | > 51.9 | > 100 | – | > 100 µM | –
CC(C)(C)c1cc[n+](C[n+]2ccc(C(C)(C)C)cc2)cc1 | – | > 100 | – | > 100 µM | – | > 100 | – | > 100 µM | – | > 100 | – | > 100 µM | – | > 100 µM | – | > 100 | > 100 | – | > 100 µM | –
Cc1cccc2c(=O)c3c(sc12)c(NCCCN)nc1ccccc13 | 1.68 µM | 3.16 | – | – | 1.89 µM | 3.41 | 1.61 µM | 3.09 µM | 1.39 µM | 2.71 | 1.58 µM | 3.13 µM | 1.52 µM | 3.03 µM | 1.48 µM | 2.87 | 2.84 | 1.18 µM | 2.63 µM | 1.35 µM
CC(=O)CCc1ccc(Oc2c3ccccc3nc3occc23)cc1 | 14 µM | 31.6 | 25.2 | > 100 µM | 22.9 µM | 46.7 | – | – | 19.1 µM | 49.6 | 15.3 µM | 29.2 µM | 25.5 µM | > 100 µM | 14 µM | 39.1 | 73.7 | 33.9 µM | > 100 µM | 18.6 µM
COc1ccc(NC(=O)c2ccc(C(F)(F)F)nc2Nc2ccc(Cl)cc2C)cc1Cl | 3.15 µM | 16.2 | 2.42 | 10.6 µM | 5.2 µM | 16.9 | 15.7 µM | 40.1 µM | 5.36 µM | 18.6 | 7.14 µM | 22.3 µM | 1.64 µM | 6.82 µM | 12.5 µM | 26.8 | 20.5 | – | – | 7.12 µM
